Tested on: Gastrin receptor-expressing rat pancreatic cells (NIH line AR42J)
Assay: Viable cell count of AR42J cells after about five days of exposure
Type: cell-based
Settings: for % Viable Cells: rat
Procedure: The number of viable cells left in the culture after the five day period was measured, and compared to a control culture that was not exposed either compound. The number of cells remaining in each of the experimental cultures, expressed as a percentage of viable cells in the control culture, is provided in Table 4, below.

COc1ccc2c3c(c4ccccc4cc13)C(=O)N(CCN(C)CCN)C2=O [MD117, 2-{2-[(2-aminoethyl)methylamino]ethyl}-6-methoxy-1,2-dihydro-3H-dibenzo[de,h]isoquinoline-1,3-dione]
cell killing at the tested concentrations (AR42J, 10, 50, 100 and 1000 nM, result in words): killing all cells in the culture at each of the tested concentrations | CC50 (Rattus norvegicus, AR-42J, 120 h, read-out: LC50 (median concentration required for death of 50% of the cell population), AR42J, about five days, calculated from the data): 3 nM | % Viable Cells (0.01 µM): −100% | % Viable Cells (0.05 µM): −100% | % Viable Cells (0.1 µM): −100% | % Viable Cells (1 µM): −100%
